Data on 23 compounds can be found in US7205285B2, “Acyl phosphonate inhibitors of β-lactamases” (Methylgene, Inc., priority 1997, dated 2007).

Series [1] deals with T1, Enterobacter cloacae P99 β-lactamase (Enterobacter cloacae, UniProt P05364).
T1 construct: purchased Porton Down, Wiltshire, U.K
The experiment in a line: Inhibition of P99 β-lactamase, nitrocefin assay (IC50). To be noted: nitrocefin substrate, 20 mM MOPS pH 7.50. Format: biochemical. As to the method: The enzyme (Enterobacter cloacae P99 β-lactamase) was dissolved to a concentration of 1 mg/mL in 20 mM MOPS buffer at pH 7.50, and then diluted 200-fold in the same buffer containing 0.1% BSA. The commercially available substrate nitrocefin was added as a 100 μM stock solution in 20 mM MOPS buffer, and inhibitors were also added as solutions in MOPS buffer. In a typical assay the following amounts were used: 300 μL of nitrocefin, 10 μL of P99 β-lactamase, x μL of inhibitor, and […] of MOPS buffer. Enzyme activity was measured at 25 EC, and the reaction was monitored spectrophotometrically at 482 nm. IC50 values were determined from the dose-response plots of the initial reaction rate vs. inhibitor concentration.

In series [2] the target is T1, Enterobacter cloacae P99 β-lactamase. Format: biochemical. The following applies: values in parentheses, second order rate constant for inhibition. The method, then:
To evaluate the inhibitors and the methods of the invention, representative inhibitors preparations were tested using class A (TEM-2 plasmid TEM)) β-lactamase and class C (Enterobacter cloacae P99 β-lactamase) β-lactamases (Porton Down, Wiltshire, U.K.) as well as representative DD-peptidases/carboxydases (e.g., Streptomyces R61 DD-peptidases) as the assayed enzyme.
Steady state kinetic parameters were directly obtained for representative inhibitors with the P99 β-lactamase with TEM β-lactamase by standard methods (e.g., Wilkinson, Biochem J. 80:324–332 (1989)) from spectrophotometric initial velocity measurements. Kinetic parameters were also obtained for DD-peptidase as the assayed enzyme, according to standard methods using hyppuryl-DL-phenyl-lactate (a known DD-peptidase substrate) (e.g. Govardhan and Pratt, Biochemistry 26:3385–3395 (1987)). The concentration of stock enzyme solutions were determined spectrophotometrically (e.g., Xu, et al., Biochemistry 35:[…] (1996)).
Representative class C and a class A β-lactamases were inhibited by representative inhibitors of Formulae I and II in a time-dependent fashion as described by the relation:
Representative inhibitors of the invention having Formula I may act by forming a covalent bond between β-lactamases and the inhibitor (i.e., irreversible inhibition). This type of inhibition is therefore time dependent. It is distinguished from reversible inhibition in so far that the backward reaction is extremely slow. […] Thus, irreversible inhibition is measured by how fast the event takes place (rate constant ki). Thus, inhibitory efficiency is expressed by large ki values.
Representative inhibitors of Formula I may also act by forming a transient acyl-enzyme intermediate. Inhibition results from a slow turn over, (de-acylation) of the intermediate.
In Table 3, kcat/km values are presented in plain text, with ki values for representative inhibitors appearing in parentheses. […]

The test system of series [3] is Staph. Aureaus. The experiment in a line: Microbiological testing: potentiation of β-lactam antibiotic. Format: cell-based. The following applies: Piperacillin, compound at 100 μg/mL. The source says:
(§1) To test the inhibitors of the invention, a wide range of organisms are used to assess compounds according to the invention; both as antibiotics and as β-Lactamase inhibitors: Initial screening for antibiotic activity utilizes penicillin sensitive S. aureus [ATTC# 25923], ampicillin sensitive H. influenzae [ATCC#10211] and clinical laboratory isolates of ampicillin sensitive E. faecalis and H. influenzae, and non-resistant P. aeruginosa. Initial studies utilize, in microtiter wells, 1 microgram of compound in 10 microliters diluted stock solution, 41,100 CFU of bacteria in 10 microliters broth solution and 80 microliters CAMHB. The count verification well contains 10 microliters CAMHB in place of the test compound. […] Microbiological and enzymatic testing is carried on duplicate plates with negative control plates.
(§2) Compounds were tested at a concentration of 100 μg/mL.
(§3) In Table 5, the microorganism tested against is shown in italics, while the antibiotic agent used is shown in plain text. […] When determined, the number in parentheses indicates the fold reduction in the MIC of the antibiotic agent when measured in the presence of the inhibitor of the invention.

The nature of series [4]: Spontaneous hydrolysis in neutral aqueous solution. Format: physicochemical. To be noted: for spontaneous hydrolysis, in words: neutral aqueous solution, relative to most compounds of the invention. As to the method: The cyclic phosphoryl chloride (500 mg; 2.3 mmol) was suspended in 60 mL of anhydrous acetonitrile (Aldrich, Sure/Seal) and water (41 μL, 2.3 mmol) added with magnetic stirring. The mixture was then gently warmed until the crystals of the starting material disappeared (ca. 5 min.). Two molar equivalents of redistilled dicyclohexylamine (913 μL) were then added. The immediately precipitating solid ([…]) was removed by vacuum filtration and the remaining solvent by rotary evaporation.

For series [5], the system named is Ent. Cloacae. As to the kind of experiment: Microbiological testing: potentiation of β-lactam antibiotic. Format: cell-based. To be noted: compound at 100 μg/mL.
Excerpt: as §1, §2, §3

Series [6] deals with Haemophilus Influenzae. The description is as above. Format: cell-based. To be noted: Ticarcillin, compound at 100 μg/mL.
Excerpt: as §1, §2, §3

Series [7] addresses TEM-2 plasmid (TEM) β-lactamase (Escherichia coli, UniProt P62593, Q37K). Format: biochemical. To be noted: values in parentheses.

Molecules are shown by their SMILES.

A word on the IC50: it is the concentration at which inhibition is half-maximal. A lower IC50 goes with greater potency in that assay. Consider `O=C(OP(=O)(O)Oc1cccc2ccccc12)c1ccccc1` [Compound XII], for which the IC50 in series [1] came out at 8 µM. In the case of `O=C(OP(=O)(O)c1cccc([N+](=O)[O-])c1)c1ccccc1` [Compound XIX], the ki in series [2] is given as 0.0179(65 ± 19) s^−1 M^−1. As to `O=C(OP(=O)(O)Oc1ccc([N+](=O)[O-])cc1)c1ccccc1` [Compound XI], inhibition in series [1] was half-maximal at 39 µM (IC50). Further, the ki in series [2] was not above 2 s⁻¹ M⁻¹. Turning to `O=C(OP(=O)(O)c1ccc([N+](=O)[O-])cc1)c1ccccc1` [Compound XVIII], the ki in series [2] was 0.0125(25 ± 3) s^−1 M^−1.

On to `CCCCCCOP(=O)(O)OC(=O)c1ccccc1` [Compound XVII], for which the ki in series [2] is 0.125(≦1) s^−1 M^−1. As to `O=C1C=C(c2ccccc2)OP(=O)(O)O1` [Compound XVI], in series [3], the “fold reduction in the MIC of the antibiotic agent” value worked out at 2 fold. Take `CCCCCCP(=O)(O)OC(=O)c1ccccc1` [Compound XXII]: the ki in series [2] was 0.0226(11.1 ± 0.1) s^−1 M^−1. For `COc1ccccc1C(=O)OP(=O)(O)Oc1ccccc1` [Compound XXIX], the ki in series [2] amounted to 3.6 ± 0.4 s⁻¹ M⁻¹. On to `O=C(OP(=O)(O)c1ccc(-c2ccccc2)cc1)c1ccccc1` [Compound XXI], for which, in series [2], the ki was 0.117(89 ± 4) s^−1 M^−1. On the same count and under the same terms, the same measure for `Cc1cccc(C)c1C(=O)OP(=O)(O)Oc1ccccc1` [Compound XXVIII]: “(20.9 ± 1.5) s^−1 M^−1”; for `O=C(OP(=O)(O)Oc1ccccc1)c1ccc(-c2ccccc2)cc1` [Compound XXVII]: not above 3 s⁻¹ M⁻¹; for `O=C(OP(=O)(O)Oc1ccccc1)c1cc2ccccc2s1` [Compound XXVI]: not above 5 s⁻¹ M⁻¹. Still for that read-out and setting: then `O=C(/C=C/c1ccccc1)OP(=O)(O)Oc1ccccc1` [Compound XXV], with not above 1 s⁻¹ M⁻¹. With `O=C(OP(=O)(O)Oc1ccc2ccccc2c1)c1ccccc1` [Compound XXXI], the ki in series [2] is not above 1 s⁻¹ M⁻¹. The same measure, in the same setting: then `O=C(OP(=O)(O)Oc1ccc2ccccc2c1)c1cc2ccccc2s1` [Compound XXX], with 1813 ± 3 s⁻¹ M⁻¹; and `O=C(OP(=O)(O)c1ccc2ccccc2c1)c1ccccc1` [Compound XX], with 0.0551(115 ± 5) s^−1 M^−1.

Consider `O=C(Cc1ccccc1)OP(=O)(O)Oc1ccccc1` [Compound X], for which the “spontaneous hydrolysis, in words” value in series [4] is “shorter half-lives”. Further, the midpoint of inhibition in series [1], the IC50, lay at 30 µM. In addition, the ki in series [2] was not above 0.04 s⁻¹ M⁻¹. Consider `O=C1OP(=O)(O)Oc2ccccc21` [V, 1-hydroxy-4,5-benz-2.6-dioxaphosphorinanone-(3)-1-oxide], for which the “rate of hydrolysis kobs” value in series [4] (20 mM MOPS, pH 7.5, 25° C.) was 1.7e-05 s⁻¹. Consider `COP(=O)(O)OC(=O)c1ccccc1` [VIII], for which the “fold reduction in the MIC of the antibiotic agent” value in series [5] (Cefoxitin) came to 2 fold; in series [5] (Ceftriaxone), 2 fold; in series [6], 0 fold. In the case of `O=C(OP(=O)(O)Oc1ccccc1)c1ccccc1` [XIII, sodium benzoyl phenyl phosphate], in series [7], the ki was 0.001(0.2) s^−1 M^−1. Still for that read-out and setting: the same measure for `O=C(OP(=O)(O)OC(=O)c1ccccc1)c1ccccc1` [XIV, sodium dibenzoyl phosphate]: 0.120(14.3) s^−1 M^−1. On to `O=C(NCP(=O)(O)OC(=O)c1ccccc1)OCc1ccccc1` [XXXIII], for which, in series [4], the “spontaneous hydrolysis, in words” value was “more rapidly hydrolyzed”. The ki entry in series [2] is recorded as “(5.9 ± 0.3 × 10^4) s^−1 M^−1”; in series [7], “(130 ± 8) s^−1 M^−1”. On to `O=C(Cc1ccccc1)NCC(=O)OP(=O)(O)Oc1ccccc1` [XXXII], for which, in series [4], the “spontaneous hydrolysis, in words” value is on record as “more rapidly hydrolyzed”.
